One test concerns the target T1, K-Ras G12D (Homo sapiens, UniProt P01116, G12D).
T1 construct: made in house; host or cells: E. coli BL21 (DE3)
In words: HTRF resonance energy transfer assay, K-Ras G12D / SOS1 interaction. The note with it: HTRF assay of Example 5; read-out: IC50 against K-Ras G12D. It counts as biochemical. Put shortly:
(§1)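 Compounds, tested in duplicate at 10 μM down to 0.01 μM, were read after about 10 min or more by HTRF as the 665/620 nm emission ratio (337 nm excitation) to derive IC50. This ratio reports FRET between an anti-GST-Eu donor on GST-K-Ras (wild-type or mutant) and an anti-6His-XL665 acceptor on His-hSOS1. Buffer: ~5 mM HEPES pH 7.4, 150 mM NaCl, 1 mM DTT, 0.05% BSA, 0.0025% Igepal.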

A further test deals with GP2D cells. In words: Ras cellular assay, growth of cells with K-Ras G12D mutation (CellTiter-Glo). It counts as cell-based. The note with it: cell growth, Example 9, G12D mutation, read-out: IC50 against GP2D cells. On the technique in general: Cellular ATP, detected with luciferase, serves as a proxy for viable cell number.
In another test the target is T2, K-Ras WT (Homo sapiens, UniProt P01116).
T2 construct: made in house; host or cells: E. coli BL21 (DE3)
In words: HTRF resonance energy transfer assay, K-Ras WT / SOS1 interaction. The class given is biochemical. As to conditions: HTRF assay of Example 5; read-out: IC50 against K-Ras WT. Put shortly: as §1
On the technique in general: Time-resolved FRET reads energy transfer from a long-lived donor to a nearby acceptor.

The next test has as its system A549 cells. In words: Ras cellular assay, growth of cells with K-Ras G12S mutation (CellTiter-Glo). It counts as cell-based. As to conditions: Homo sapiens, cell growth, Example 9, G12S mutation, read-out: IC50 against A549 cells. Put shortly: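 Growth inhibition IC50 values come from four-parameter fits of CellTiter-Glo luminescence, read about 6 days after compound addition. G12S-mutant A549 cells (e.g. 800/well, RPMI-1640 + 10% heat-inactivated FBS) were plated in tissue-culture-treated or ultra-low-attachment 384-well format. Dosing began the following day with serial dilutions, e.g. 10 points, 3-fold.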

The next test relates to SW620 cells. Briefly: Ras cellular assay, growth of cells with K-Ras G12V mutation (CellTiter-Glo). It counts as cell-based. The note with it: Homo sapiens, SW-620; cell growth, Example 9, G12V mutation; read-out: IC50 against SW620 cells. Put shortly:
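IC50 values came from a four-parameter fit of CellTiter-Glo viability, read roughly 6 days after dosing with e.g. a 10-point threefold dilution series. G12V-mutant SW620 cells (e.g. 800 per well) had been plated the previous day in RPMI-1640/10% heat-inactivated FBS, on tissue culture-treated or ultra-low attachment plates.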

The target of another test is T3, K-Ras G12S (Homo sapiens, UniProt P01116, G12S).
T3 construct: made in house; host or cells: E. coli BL21 (DE3)
Briefly: HTRF resonance energy transfer assay, K-Ras G12S / SOS1 interaction. The class given is biochemical. The note with it: HTRF assay of Example 5; read-out: IC50 against K-Ras G12S. Put shortly: as §1

For another test, the target named is T4, K-Ras G12V (Homo sapiens, UniProt P01116, G12V).
T4 construct: made in house; host or cells: E. coli BL21 (DE3)
Briefly: HTRF resonance energy transfer assay, K-Ras G12V / SOS1 interaction. It counts as biochemical. The note with it: HTRF assay of Example 5; read-out: IC50 against K-Ras G12V. Put shortly:
as §1

Each structure is given as a SMILES string.

T2 sequence (P01116 1-188 isoform P01116-2): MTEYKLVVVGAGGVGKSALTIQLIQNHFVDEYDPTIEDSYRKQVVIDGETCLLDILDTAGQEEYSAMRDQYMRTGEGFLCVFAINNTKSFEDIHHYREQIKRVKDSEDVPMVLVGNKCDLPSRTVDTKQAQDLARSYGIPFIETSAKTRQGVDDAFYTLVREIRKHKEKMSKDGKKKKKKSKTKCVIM
T3 sequence (P01116 1-188 isoform P01116-2 G12S): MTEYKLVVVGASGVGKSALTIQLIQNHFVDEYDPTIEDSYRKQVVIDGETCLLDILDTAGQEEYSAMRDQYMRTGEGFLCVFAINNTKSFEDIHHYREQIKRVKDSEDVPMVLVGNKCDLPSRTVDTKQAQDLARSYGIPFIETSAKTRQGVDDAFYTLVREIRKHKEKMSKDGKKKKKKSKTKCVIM
T1 sequence (P01116 1-188 isoform P01116-2 G12D): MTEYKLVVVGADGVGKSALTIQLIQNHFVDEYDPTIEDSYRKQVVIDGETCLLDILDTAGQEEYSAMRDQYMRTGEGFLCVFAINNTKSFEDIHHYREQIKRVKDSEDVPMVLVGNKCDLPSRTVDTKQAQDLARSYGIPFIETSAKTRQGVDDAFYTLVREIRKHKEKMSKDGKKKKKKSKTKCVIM
T4 sequence (P01116 1-188 isoform P01116-2 G12V): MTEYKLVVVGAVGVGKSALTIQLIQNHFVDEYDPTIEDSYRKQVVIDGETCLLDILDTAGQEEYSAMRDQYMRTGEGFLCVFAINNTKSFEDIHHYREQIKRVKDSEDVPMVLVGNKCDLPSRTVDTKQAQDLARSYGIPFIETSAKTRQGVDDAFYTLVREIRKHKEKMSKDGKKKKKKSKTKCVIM

The term IC50 denotes the concentration that gives 50% inhibition. Take `CN(C)CCCN1CCOc2c(Cl)c(-c3ccc(F)c4sc(N)c(C#N)c34)c(F)c3nc(OC[C@@]45CCCN4C[C@H](F)C5)nc1c23` [Compound 1020, 2-amino-4-(8-chloro-4-(3-(dimethylamino)propyl)-10-fluoro-2-(((2R,7aS)-2-fluorotetrahydro-1H-pyrrolizin-7a(5H)-yl)methoxy)-5,6-dihydro-4H-[1,4]oxazepino[5,6,7-de]quinazolin-9-yl)-7-fluorobenzo[b]thiophene-3-carbonitrile]: the IC50 on K-Ras G12D is less than 100 nM; with GP2D cells it was less than 500 nM; on K-Ras WT, less than 100 nM; with A549 cells, less than 5 µM; in the test with SW620 cells it was less than 5 µM; at K-Ras G12S it was less than 100 nM. Besides, the half-inhibitory concentration (IC50) on K-Ras G12V is less than 100 nM.
Regarding `C[C@H]1CN(CC(F)F)c2nc(OC[C@@]34CCCN3C[C@H](F)C4)nc3c(F)c(-c4ccc(F)c5sc(N)c(C#N)c45)c(Cl)c(c23)O1` [Compound 1021, 2-amino-4-((6S)-8-chloro-4-(2,2-difluoroethyl)-10-fluoro-2-(((2R,7aS)-2-fluorotetrahydro-1H-pyrrolizin-7a(5H)-yl)methoxy)-6-methyl-5,6-dihydro-4H-[1,4]oxazepino[5,6,7-de]quinazolin-9-yl)-7-fluorobenzo[b]thiophene-3-carbonitrile], the IC50 is less than 100 nM at K-Ras G12D; less than 500 nM with GP2D cells; less than 100 nM on K-Ras WT; less than 5 µM in the test with A549 cells; less than 5 µM with SW620 cells; less than 100 nM on K-Ras G12S. Besides, the 50% inhibitory concentration (IC50) at K-Ras G12V was less than 100 nM.
`N#Cc1c(N)sc2c(F)ccc(-c3c(Cl)c4c5c(nc(OC[C@@]67CCCN6C[C@H](F)C7)nc5c3F)N(C3CCN(C(=O)C[C@H]5CCCO5)C3)CCO4)c12` (stereo partly drawn) [Compound 1024, 2-amino-4-(8-chloro-10-fluoro-2-(((2R,7aS)-2-fluorotetrahydro-1H-pyrrolizin-7a(5H)-yl)methoxy)-4-(1-(2-((R)-tetrahydrofuran-2-yl)acetyl)pyrrolidin-3-yl)-5,6-dihydro-4H-[1,4]oxazepino[5,6,7-de]quinazolin-9-yl)-7-fluorobenzo[b]thiophene-3-carbonitrile]: the concentration for half-maximal inhibition (IC50) at K-Ras G12D was less than 100 nM; in the test with GP2D cells, less than 500 nM; at K-Ras WT, less than 100 nM; in the test on A549 cells, less than 5 µM; in the test on SW620 cells it was less than 5 µM; on K-Ras G12S it was less than 100 nM. At K-Ras G12V, the 50% inhibitory concentration (IC50) is less than 100 nM.
Take `CC(C)N1CCOc2c(Cl)c(-c3ccc(F)c4sc(N)c(C#N)c34)c(F)c3nc(OC[C@@]45CCCN4C[C@H](F)C5)nc1c23` [Compound 1025, 2-amino-4-(8-chloro-10-fluoro-2-(((2R,7aS)-2-fluorotetrahydro-1H-pyrrolizin-7a(5H)-yl)methoxy)-4-isopropyl-5,6-dihydro-4H-[1,4]oxazepino[5,6,7-de]quinazolin-9-yl)-7-fluorobenzo[b]thiophene-3-carbonitrile]: the IC50 on K-Ras G12D is less than 100 nM; in the test with GP2D cells, less than 500 nM; on K-Ras WT it was less than 100 nM; with A549 cells, less than 5 µM; in the test with SW620 cells it was less than 5 µM; on K-Ras G12S, less than 100 nM. Moreover, the IC50 at K-Ras G12V is less than 100 nM.
With `N#Cc1c(N)sc2c(F)ccc(-c3c(Cl)c4c5c(nc(OC[C@@]67CCCN6C[C@H](F)C7)nc5c3F)N(CC(F)F)[C@@H](CNC=O)CO4)c12` [Compound 1028, N-(((5S)-9-(2-amino-3-cyano-7-fluorobenzo[b]thiophen-4-yl)-8-chloro-4-(2,2-difluoroethyl)-10-fluoro-2-(((2R,7aS)-2-fluorotetrahydro-1H-pyrrolizin-7a(5H)-yl)methoxy)-5,6-dihydro-4H-[1,4]oxazepino[5,6,7-de]quinazolin-5-yl)methyl)formamide], the IC50 is less than 100 nM at K-Ras G12D; less than 500 nM in the test on GP2D cells; less than 100 nM on K-Ras WT; less than 5 µM in the test on A549 cells; less than 5 µM with SW620 cells; less than 100 nM on K-Ras G12S. For the same compound, the concentration for half-maximal inhibition (IC50) on K-Ras G12V was less than 100 nM.
On to `COC1(C(=O)N2CCC(N3CCOc4c(Cl)c(-c5ccc(F)c6sc(N)c(C#N)c56)c(F)c5nc(OC[C@@]67CCCN6C[C@H](F)C7)nc3c45)C2)CC1` (stereo partly drawn) [Compound 1038, 2-amino-4-(8-chloro-10-fluoro-2-(((2R,7aS)-2-fluorotetrahydro-1H-pyrrolizin-7a(5H)-yl)methoxy)-4-(1-(1-methoxycyclopropane-1-carbonyl)pyrrolidin-3-yl)-5,6-dihydro-4H-[1,4]oxazepino[5,6,7-de]quinazolin-9-yl)-7-fluorobenzo[b]thiophene-3-carbonitrile], for which the IC50 at K-Ras G12D was less than 100 nM; with GP2D cells, less than 500 nM; on K-Ras WT, less than 100 nM; in the test with A549 cells, less than 5 µM; in the test with SW620 cells, less than 5 µM; at K-Ras G12S, less than 100 nM. For the same compound, on K-Ras G12V, the IC50 is less than 100 nM.
`CC(C)(C#N)CN1CCOc2c(Cl)c(-c3ccc(F)c4sc(N)c(C#N)c34)c(F)c3nc(OC[C@@]45CCCN4C[C@H](F)C5)nc1c23` [Compound 1048, 2-amino-4-(8-chloro-4-(2-cyano-2-methylpropyl)-10-fluoro-2-(((2R,7aS)-2-fluorotetrahydro-1H-pyrrolizin-7a(5H)-yl)methoxy)-5,6-dihydro-4H-[1,4]oxazepino[5,6,7-de]quinazolin-9-yl)-7-fluorobenzo[b]thiophene-3-carbonitrile]: the half-maximal inhibitory concentration (IC50) at K-Ras G12D is less than 100 nM; in the test with GP2D cells it was less than 500 nM; on K-Ras WT, less than 100 nM; in the test on A549 cells it was less than 5 µM; in the test on SW620 cells, less than 5 µM; at K-Ras G12S, less than 100 nM. Further, the half-maximal inhibitory concentration (IC50) on K-Ras G12V is less than 100 nM.
In the case of `N#Cc1c(N)sc2c(F)ccc(-c3c(Cl)c4c5c(nc(OC[C@@]67CCCN6C[C@H](F)C7)nc5c3F)N(C3CCN(C=O)C3)CCO4)c12` (stereo partly drawn) [Compound 1052, 2-amino-4-(8-chloro-10-fluoro-2-(((2R,7aS)-2-fluorotetrahydro-1H-pyrrolizin-7a(5H)-yl)methoxy)-4-(1-formylpyrrolidin-3-yl)-5,6-dihydro-4H-[1,4]oxazepino[5,6,7-de]quinazolin-9-yl)-7-fluorobenzo[b]thiophene-3-carbonitrile], the IC50 is less than 100 nM on K-Ras G12D; less than 500 nM in the test with GP2D cells; less than 100 nM on K-Ras WT; less than 5 µM in the test with A549 cells; less than 5 µM with SW620 cells; less than 100 nM at K-Ras G12S. At K-Ras G12V, the 50% inhibitory concentration (IC50) is less than 100 nM.
In the case of `N#Cc1c(N)sc2c(F)ccc(-c3c(Cl)c4c5c(nc(OC[C@@]67CCCN6C[C@H](F)C7)nc5c3F)N(CC(F)F)[C@@H](C(F)F)CO4)c12` [Compound 1057, 2-amino-4-((5R)-8-chloro-4-(2,2-difluoroethyl)-5-(difluoromethyl)-10-fluoro-2-(((2R,7aS)-2-fluorotetrahydro-1H-pyrrolizin-7a(5H)-yl)methoxy)-5,6-dihydro-4H-[1,4]oxazepino[5,6,7-de]quinazolin-9-yl)-7-fluorobenzo[b]thiophene-3-carbonitrile], the IC50 on K-Ras G12D is less than 100 nM; in the test with GP2D cells, less than 500 nM; on K-Ras WT, less than 100 nM; in the test on A549 cells, less than 5 µM; in the test with SW620 cells, less than 5 µM; at K-Ras G12S, less than 100 nM. On K-Ras G12V, the IC50 was less than 100 nM.

(Values after US12209102B2, “Heterocyclic compounds and uses thereof” (Kumquat Biosciences Inc., priority 2022, dated 2025).)
